# According to US20260262643A1, “HERBICIDAL BENZOXAZINES” (FMC CORPORATION, priority 2022, published 2026):
# Columns and labels:
# [1] = tested on: oat, wild; assay: Test C preemergence; type: in vivo, Avena fatua; settings: preemergence, 0 to 100 scale (0 no effect, 100 complete control)
# In short: (§1)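 Visual injury score, 0–100 (100 = complete control), taken 10 days after treatment relative to untreated controls. Pre: directed spray onto soil over sown seeds. Post: foliar spray at one- to two-leaf stage, 2–10 cm. Solvent/surfactant formulation; loam–sand soil; greenhouse.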
# [2] = tested on: soybean; assay: Test C preemergence; type: in vivo, Glycine max; settings: preemergence, 0 to 100 scale (0 no effect, 100 complete control)
# In short: as §1
# [3] = tested on: soybean; assay: Test C postemergence; type: in vivo, Glycine max; settings: 10 days, 0 to 100 scale (0 no effect, 100 complete control)
# In short: as §1
# [4] = tested on: sedge, umbrella; assay: Test D flooded paddy test; type: in vivo, Cyperus difformis; settings: 250 g ai/ha, applied to paddy water, visual rating after 13 to 14 days, scale 0 to 100 (0 no effect, 100 complete control)
# In short: (§2)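 Post-flood water application at the 2-leaf stage; 3 cm flood depth kept constant; visual control rating 0–100 after 13–14 days greenhouse growth.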
# [5] = tested on: barnyardgrass; assay: Test C postemergence; type: in vivo, Echinochloa crusgalli; settings: 10 days, 0 to 100 scale (0 no effect, 100 complete control)
# In short: as §1
# [6] = tested on: ducksalad; assay: Test D flooded paddy test; type: in vivo, Heteranthera limosa; settings: 250 g ai/ha, applied to paddy water, visual rating after 13 to 14 days, scale 0 to 100 (0 no effect, 100 complete control)
# In short: as §2
# [7] = tested on: green foxtail; assay: Test C postemergence; type: in vivo, Setaria viridis; settings: 10 days, 0 to 100 scale (0 no effect, 100 complete control)
# In short: as §1
# [8] = tested on: barnyardgrass; assay: Test C preemergence; type: in vivo, Echinochloa crusgalli; settings: preemergence, 0 to 100 scale (0 no effect, 100 complete control)
# In short: as §1
# [9] = tested on: rice; assay: Test D flooded paddy test; type: in vivo, Oryza sativa; settings: 250 g ai/ha, applied to paddy water, visual rating after 13 to 14 days, scale 0 to 100 (0 no effect, 100 complete control)
# In short: as §2
# [10] = tested on: oat, wild; assay: Test C postemergence; type: in vivo, Avena fatua; settings: 10 days, 0 to 100 scale (0 no effect, 100 complete control)
# In short: as §1
# [11] = tested on: pigweed, palmer; assay: Test C preemergence; type: in vivo, Amaranthus palmeri; settings: preemergence, 0 to 100 scale (0 no effect, 100 complete control)
# In short: as §1
# [12] = tested on: galium; assay: Test C postemergence; type: in vivo, Galium aparine; settings: 10 days, 0 to 100 scale (0 no effect, 100 complete control)
# In short: as §1
# [13] = tested on: corn; assay: Test C postemergence; type: in vivo, Zea mays; settings: 10 days, 0 to 100 scale (0 no effect, 100 complete control)
# In short: as §1
# [14] = tested on: barnyardgrass; assay: Test D flooded paddy test; type: in vivo, Echinochloa crus-galli; settings: 250 g ai/ha, applied to paddy water, visual rating after 13 to 14 days, scale 0 to 100 (0 no effect, 100 complete control)
# In short: as §2
# [15] = tested on: green foxtail; assay: Test C preemergence; type: in vivo, Setaria viridis; settings: preemergence, 0 to 100 scale (0 no effect, 100 complete control)
# In short: as §1
# [16] = tested on: wheat; assay: Test C postemergence; type: in vivo, Triticum aestivum; settings: 10 days, 0 to 100 scale (0 no effect, 100 complete control)
# In short: as §1
# [17] = tested on: horseweed; assay: Test C postemergence; type: in vivo, Erigeron canadensis; settings: 10 days, 0 to 100 scale (0 no effect, 100 complete control)
# In short: as §1
# [18] = tested on: ragweed; assay: Test C postemergence; type: in vivo, Ambrosia artemisiifolia; settings: 10 days, 0 to 100 scale (0 no effect, 100 complete control)
# In short: as §1
# [19] = tested on: corn; assay: Test C preemergence; type: in vivo, Zea mays; settings: preemergence, 0 to 100 scale (0 no effect, 100 complete control)
# In short: as §1
# [20] = tested on: ragweed; assay: Test C preemergence; type: in vivo, Ambrosia artemisiifolia; settings: preemergence, 0 to 100 scale (0 no effect, 100 complete control)
# In short: as §1
# [21] = tested on: kochia; assay: Test C preemergence; type: in vivo, Bassia scoparia; settings: preemergence, 0 to 100 scale (0 no effect, 100 complete control)
# In short: as §1
# [22] = tested on: kochia; assay: Test C postemergence; type: in vivo, Bassia scoparia; settings: 10 days, 0 to 100 scale (0 no effect, 100 complete control)
# In short: as §1
# [23] = tested on: ryegrass, Italian; assay: Test C postemergence; type: in vivo, Lolium multiflorum; settings: 10 days, 0 to 100 scale (0 no effect, 100 complete control)
# In short: as §1
# [24] = tested on: pigweed, palmer; assay: Test C postemergence; type: in vivo, Amaranthus palmeri; settings: 10 days, 0 to 100 scale (0 no effect, 100 complete control)
# In short: as §1
# [25] = tested on: wheat; assay: Test C preemergence; type: in vivo, Triticum aestivum; settings: preemergence, 0 to 100 scale (0 no effect, 100 complete control)
# In short: as §1
# [26] = tested on: blackgrass; assay: Test C postemergence; type: in vivo, Alopecurus myosuroides; settings: 10 days, 0 to 100 scale (0 no effect, 100 complete control)
# In short: as §1
# [27] = tested on: blackgrass; assay: Test C preemergence; type: in vivo, Alopecurus myosuroides; settings: preemergence, 0 to 100 scale (0 no effect, 100 complete control)
# In short: as §1
# [28] = tested on: ryegrass, Italian; assay: Test C preemergence; type: in vivo, Lolium multiflorum; settings: preemergence, 0 to 100 scale (0 no effect, 100 complete control)
# In short: as §1
smiles,measurement,setting,value
COc1ncn(-c2cccc(C(=O)N3C[C@H](C)Oc4c(Cl)cccc43)c2)n1 [Compound 310],"Oat, Wild plant response rating",[1]; 500 g ai/ha,60
same,"Oat, Wild plant response rating","[1]; Test C, 125 g ai/ha",0
same,Soybean plant response rating,[2]; 500 g ai/ha,0
same,Soybean plant response rating,"[2]; Test C, 125 g ai/ha",40
same,"Plant response rating, Soybean","[3]; 500 g ai/ha, postemergence",100
same,"Plant response rating, Soybean","[3]; Postemergence, 125 g ai/ha",90
same,"Plant response rating, Sedge, Umbrella (Flood)",[4],80
same,"Plant response rating, Barnyardgrass","[5]; 500 g ai/ha, postemergence",80
same,"Plant response rating, Barnyardgrass","[5]; Postemergence, 125 g ai/ha",20
same,"Plant response rating, Ducksalad (Flood)",[6],75
same,"Plant response rating, Foxtail, Green","[7]; 500 g ai/ha, postemergence",50
same,"Plant response rating, Foxtail, Green","[7]; Postemergence, 125 g ai/ha",50
same,Barnyardgrass plant response rating,[8]; 500 g ai/ha,80
same,Barnyardgrass plant response rating,"[8]; Test C, 125 g ai/ha",20
same,"Plant response rating, Rice (Flood)",[9],0
same,"Plant response rating, Oat, Wild","[10]; 500 g ai/ha, postemergence",40
same,"Plant response rating, Oat, Wild","[10]; Postemergence, 125 g ai/ha",0
same,"Pigweed, Palmer plant response rating",[11]; 500 g ai/ha,100
same,"Pigweed, Palmer plant response rating","[11]; Test C, 125 g ai/ha",80
same,"Plant response rating, Galium","[12]; 500 g ai/ha, postemergence",90
same,"Plant response rating, Galium","[12]; Postemergence, 125 g ai/ha",90
same,"Plant response rating, Corn","[13]; 500 g ai/ha, postemergence",60
same,"Plant response rating, Corn","[13]; Postemergence, 125 g ai/ha",10
same,"Plant response rating, Barnyardgrass (Flood)",[14],10
same,"Foxtail, Green plant response rating",[15]; 500 g ai/ha,100
same,"Foxtail, Green plant response rating","[15]; Test C, 125 g ai/ha",100
same,"Plant response rating, Wheat","[16]; 500 g ai/ha, postemergence",50
same,"Plant response rating, Wheat","[16]; Postemergence, 125 g ai/ha",10
same,"Plant response rating, Horseweed","[17]; 500 g ai/ha, postemergence",30
same,"Plant response rating, Horseweed","[17]; Postemergence, 125 g ai/ha",0
same,"Plant response rating, Ragweed","[18]; 500 g ai/ha, postemergence",50
same,"Plant response rating, Ragweed","[18]; Postemergence, 125 g ai/ha",30
same,Corn plant response rating,[19]; 500 g ai/ha,0
same,Corn plant response rating,"[19]; Test C, 125 g ai/ha",0
same,Ragweed plant response rating,[20]; 500 g ai/ha,0
same,Ragweed plant response rating,"[20]; Test C, 125 g ai/ha",0
same,Kochia plant response rating,[21]; 500 g ai/ha,80
same,Kochia plant response rating,"[21]; Test C, 125 g ai/ha",50
same,"Plant response rating, Kochia","[22]; 500 g ai/ha, postemergence",90
same,"Plant response rating, Kochia","[22]; Postemergence, 125 g ai/ha",70
same,"Plant response rating, Ryegrass, Italian","[23]; 500 g ai/ha, postemergence",80
same,"Plant response rating, Ryegrass, Italian","[23]; Postemergence, 125 g ai/ha",30
same,"Plant response rating, Pigweed, Palmer","[24]; 500 g ai/ha, postemergence",90
same,"Plant response rating, Pigweed, Palmer","[24]; Postemergence, 125 g ai/ha",70
same,Wheat plant response rating,[25]; 500 g ai/ha,0
same,Wheat plant response rating,"[25]; Test C, 125 g ai/ha",0
same,"Plant response rating, Blackgrass","[26]; 500 g ai/ha, postemergence",90
same,"Plant response rating, Blackgrass","[26]; Postemergence, 125 g ai/ha",50
same,Blackgrass plant response rating,[27]; 500 g ai/ha,50
same,Blackgrass plant response rating,"[27]; Test C, 125 g ai/ha",10
same,"Ryegrass, Italian plant response rating",[28]; 500 g ai/ha,80
same,"Ryegrass, Italian plant response rating","[28]; Test C, 125 g ai/ha",30
